In ChEMBL document CHEMBL2157973, “An efficient synthesis of 3-OBn-6β,14-epoxy-bridged opiates from naltrexone and identification of a related dual MOR inverse agonist/KOR agonist” (Bioorg Med Chem Lett, 2012):
pEC50: −log10 of the molar value.

Columns and labels:
Format in all cases: functional, cell-based
Mu-type opioid receptor [1] = target: T1, Mu-type opioid receptor (Homo sapiens, UniProt P35372); assay: Inverse agonist activity at human recombinant mu opioid receptor expressed in CHO cells after 3 hrs by [35S]GTPgammaS binding assay
Mu-type opioid receptor [2] = target: T1, Mu-type opioid receptor; assay: Inverse agonist activity at human recombinant mu opioid receptor expressed in CHO cells after 3 hrs by [35S]GTPgammaS binding assay relative to KC-2-009
[3] = target: Kappa-type opioid receptor (Homo sapiens) (UniProt P41145); assay: Agonist activity at human kappa opioid receptor expressed in CHO cells after 3 hrs by [35S]GTPgammaS binding assay
[4] = target: Kappa-type opioid receptor (Homo sapiens) (UniProt P41145); assay: Agonist activity at human kappa opioid receptor expressed in CHO cells after 3 hrs by [35S]GTPgammaS binding assay relative to control

T1 sequence (P35372 whole entry): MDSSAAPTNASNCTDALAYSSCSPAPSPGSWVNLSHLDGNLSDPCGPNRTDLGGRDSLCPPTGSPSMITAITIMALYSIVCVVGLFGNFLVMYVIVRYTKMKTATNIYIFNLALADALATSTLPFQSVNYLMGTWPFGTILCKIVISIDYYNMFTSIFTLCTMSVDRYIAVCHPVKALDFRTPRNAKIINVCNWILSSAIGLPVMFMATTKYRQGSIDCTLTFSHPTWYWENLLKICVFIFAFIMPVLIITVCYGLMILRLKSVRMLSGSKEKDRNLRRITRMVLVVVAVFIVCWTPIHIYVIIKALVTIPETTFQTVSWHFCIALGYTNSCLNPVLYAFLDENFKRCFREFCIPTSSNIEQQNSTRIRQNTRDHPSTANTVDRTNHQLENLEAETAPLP
Chain of Kappa-type opioid receptor (Homo sapiens) (P41145 whole entry): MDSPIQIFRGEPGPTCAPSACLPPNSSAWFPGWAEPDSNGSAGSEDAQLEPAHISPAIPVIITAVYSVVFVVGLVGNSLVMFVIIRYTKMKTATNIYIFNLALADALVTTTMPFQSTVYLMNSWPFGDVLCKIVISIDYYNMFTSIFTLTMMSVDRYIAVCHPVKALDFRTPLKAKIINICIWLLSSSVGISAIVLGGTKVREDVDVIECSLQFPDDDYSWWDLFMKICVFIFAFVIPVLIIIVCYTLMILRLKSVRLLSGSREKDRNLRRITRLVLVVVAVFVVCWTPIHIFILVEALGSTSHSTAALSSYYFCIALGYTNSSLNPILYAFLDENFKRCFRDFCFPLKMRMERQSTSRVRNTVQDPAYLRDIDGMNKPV

## CS(=O)(=O)O[C@@H]1CC[C@@]2(O)[C@H]3Cc4ccc(O)c5c4[C@@]2(CCN3CC2CC2)[C@H]1O5
Mu-type opioid receptor [1]
  pEC50: 8.59
Mu-type opioid receptor [2]
  Emax: 60.5%
[3]
  ED50: 26 nM
[4]
  Emax: 48%

## Oc1ccc2c3c1O[C@H]1[C@H](O)CC[C@@]4(O)[C@@H](C2)N(CC2CC2)CC[C@]314
Mu-type opioid receptor [2]
  Emax: 89%
